From patent US9932331B2, “Phenyl tetrahydroisoquinoline compound substituted with heteroaryl” (TAISHO PHARMACEUTICAL CO., LTD, priority 2014, dated 2018) come the findings set out here.

Structures can show the parent of a compound that is named as a salt.

For one assay, the target named is T1, human NHE3 (Homo sapiens, UniProt P48764).
T1 sequence (P48764 26-834): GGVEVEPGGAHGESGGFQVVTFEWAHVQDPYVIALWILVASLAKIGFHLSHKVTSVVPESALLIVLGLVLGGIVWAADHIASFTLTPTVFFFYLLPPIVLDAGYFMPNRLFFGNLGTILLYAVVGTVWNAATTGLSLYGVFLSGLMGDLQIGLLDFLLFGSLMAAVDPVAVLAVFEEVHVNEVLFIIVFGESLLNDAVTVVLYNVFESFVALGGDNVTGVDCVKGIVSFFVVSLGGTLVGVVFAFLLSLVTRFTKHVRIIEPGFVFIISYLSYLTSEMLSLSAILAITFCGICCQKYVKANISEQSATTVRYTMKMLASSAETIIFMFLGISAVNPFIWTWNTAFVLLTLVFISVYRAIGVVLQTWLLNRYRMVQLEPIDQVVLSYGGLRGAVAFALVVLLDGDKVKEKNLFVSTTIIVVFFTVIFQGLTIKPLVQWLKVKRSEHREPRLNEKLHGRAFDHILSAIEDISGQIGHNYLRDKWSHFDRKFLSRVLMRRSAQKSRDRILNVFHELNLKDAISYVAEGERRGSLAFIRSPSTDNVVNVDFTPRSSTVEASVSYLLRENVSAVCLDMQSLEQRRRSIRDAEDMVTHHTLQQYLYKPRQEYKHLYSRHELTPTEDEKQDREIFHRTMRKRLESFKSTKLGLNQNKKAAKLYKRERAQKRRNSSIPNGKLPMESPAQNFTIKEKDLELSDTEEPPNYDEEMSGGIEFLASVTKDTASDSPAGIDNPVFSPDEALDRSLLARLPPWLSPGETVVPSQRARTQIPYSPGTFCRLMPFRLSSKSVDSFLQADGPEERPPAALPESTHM
Briefly: NHE3 inhibition test (recovery of intracellular pH in cell line stably expressing human NHE3). It is filed as cell-based. The settings on record: OK cells deficient in endogenous NHE stably expressing human NHE3; BCECF fluorescence, initial rate of pH recovery; read-out: human NHE3 inhibitory activity IC50. The gist of the method:
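IC50 is the concentration halving the initial rate of Na-triggered intracellular pH recovery, tracked by BCECF fluorescence, in NH4Cl-acidified cells. Cells: NHE-deficient OK line stably transfected with human NHE3; compound added in Na-free pH 7.4 buffer.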

For another assay, the system named is SD rat. As to the kind of experiment: 32P-phosphate oral loading test using SD rat (phosphorus absorption inhibitory effect). The assay is classed as in vivo. Conditions: SD male rats, oral dose 3 mg/kg, plasma radioactivity 30 minutes after 32P-phosphate solution, vs control group; for inhibition in vivo at 3 mg/kg: Rattus norvegicus, 0.5 h, read-out: Rate of inhibition of phosphate absorption. Here is the method:
Phosphorus Absorption Inhibitory Effect of the Compound of the Present Invention in ^32P-Phosphate Oral Loading Test Using SD Rat
8-week-old SD male rats (Japan SLC, Inc.) were used as laboratory animals. Each test compound was suspended or dissolved at a concentration of 0.2 mg/mL or 0.6 mg/mL in Japanese Pharmacopoeia water for injection (manufactured by Hikari Pharmaceutical Co., Ltd.) and orally administered to each rat at a dose of 5 ml/kg body weight. Japanese Pharmacopoeia water for injection was administered at the same dose as above to a control group. 5 minutes after the administration of the test compound or water for injection, a phosphate solution (1.3 mM NaH2PO4) containing 32P-phosphate (PerkinElmer Inc.) was administered thereto at a dose of 5 ml/kg. 30 minutes after the administration of the phosphate solution, blood was collected from the tail vein, and the blood sample was immediately mixed with EDTA-2K (manufactured by Dojindo Laboratories). Then, the mixture was centrifuged at 3000 rpm at 4° C. for 10 minutes to recover plasma.
The radioactivity in 100 μL of the plasma was measured using a liquid scintillation counter and used as a phosphate absorption count. The radioactivity in the plasma of the control group was used as a control, and the rate of inhibition of phosphate absorption was determined according to the following expression: Rate of inhibition of phosphate absorption (%)=(1−Phosphate absorption count of the test compound administration group/Phosphate absorption count of the control group)×100 (2) Results

In general, IC50 refers to the concentration needed to halve the response being measured. With `CN1Cc2c(Cl)cc(Cl)cc2[C@H](c2cccc(-c3nnn(CCOCCOCCOCCNC(=O)NCCCCNC(=O)NCCOCCOCCOCCn4nnc(-c5cccc([C@@H]6CN(C)Cc7c(Cl)cc(Cl)cc76)c5)n4)n3)c2)C1` [Example 7-30, 1,1′-Butane-1,4-diylbis {3-[2-(2-{2-[2-(5-{3-[(4S)-6,8-dichloro-2-methyl-1,2,3,4-tetrahydroisoquinolin-4-yl]phenyl}-2H-tetrazol-2-yl)ethoxy]ethoxy}ethoxy)ethyl]urea}hydrochloride], the IC50 on human NHE3 stood at 2.8 nM. For the same compound, the inhibition in vivo at 3 mg/kg in the assay with SD rat was found to be 28%.

On to `CN1Cc2c(Cl)cc(Cl)cc2[C@@H](c2cccc(-c3cn(CCOCCOCCOCCOCCOCCNC(=O)[C@H](O)[C@@H](O)[C@@H](O)[C@H](O)C(=O)NCCOCCOCCOCCOCCOCCn4cc(-c5cccc([C@@H]6CN(C)Cc7c(Cl)cc(Cl)cc76)c5)nn4)nn3)c2)C1` [Example 6-12, (2R,3S,4R,5S)—N-[17-(4-{3-[(4R)-6,8-Dichloro-2-methyl-1,2,3,4-tetrahydroisoquinolin-4-yl]phenyl}-1H-1,2,3-triazol-1-yl)-3,6,9,12,15-pentaoxaheptadec-1-yl]-N′-[17-(4-{3-[(4S)-6,8-dichloro-2-methyl-1,2,3,4-tetrahydroisoquinolin-4-yl]phenyl}-1H-1,2,3-triazol-1-yl)-3,6,9,12,15-pentaoxaheptadec-1-yl]2,3,4,5-tetrahydroxyhexanediamide hydrochloride], for which the IC50 at human NHE3 worked out at 2.3 nM. In addition, in the assay on SD rat, the inhibition in vivo at 3 mg/kg was 37%.

For `CN1Cc2c(Cl)cc(Cl)cc2[C@H](c2cccc(-c3cn(CCOCCOCCOCCOCCNC(=O)NCCOCCOCCOCCOCCn4cc(-c5cccc([C@@H]6CN(C)Cc7c(Cl)cc(Cl)cc76)c5)nn4)nn3)c2)C1` [Example 7-43, 1,3-Bis[14-(4-{3-[(4S)-6,8-dichloro-2-methyl-1,2,3,4-tetrahydroisoquinolin-4-yl]phenyl}-1H-1,2,3-triazol-1-yl)-3,6,9,12-tetraoxatetradec-1-yl]urea hydrochloride], the IC50 on human NHE3 came to 8.5 nM. Moreover, the inhibition in vivo at 3 mg/kg in the assay on SD rat is 37%.

With `CN1Cc2c(Cl)cc(Cl)cc2[C@H](c2cccc(-c3cn(CCOCCOCCOCCOCCNC(=O)[C@H](O)[C@@H](O)C(=O)NCCOCCOCCOCCOCCn4cc(-c5cccc([C@@H]6CN(C)Cc7c(Cl)cc(Cl)cc76)c5)nn4)nn3)c2)C1` [Example 6-9, (2R,3R)—N,N′-Bis[14-(4-{3-[(4S)-6,8-dichloro-2-methyl-1,2,3,4-tetrahydroisoquinolin-4-yl]phenyl}-1H-1,2,3-triazol-1-yl)-3,6,9,12-tetraoxatetradec-1-yl]-2,3-dihydroxybutanediamide hydrochloride], at human NHE3, the IC50 was 4.1 nM. In addition, the inhibition in vivo at 3 mg/kg with SD rat is 53%.

As for `CN1Cc2c(Cl)cc(Cl)cc2[C@H](c2cccc(-c3cn(CCOCCOCCNC(=O)COCC(=O)NCCOCCOCCn4cc(-c5cccc([C@@H]6CN(C)Cc7c(Cl)cc(Cl)cc76)c5)nn4)nn3)c2)C1` [Example 6-4, 1-(4-{3-[(4S)-6,8-Dichloro-2-methyl-1,2,3,4-tetrahydroisoquinolin-4-yl]phenyl}-1H-1,2,3-triazol-1-yl)-N-(2-{2-[2-(4-{3-[(4S)-6,8-dichloro-2-methyl-1,2,3,4-tetrahydroisoquinolin-4-yl]phenyl}-1H-1,2,3-triazol-1-yl)ethoxy]ethoxy}ethyl)-10-oxo-3,6,12-trioxa-9-azatetradecan-14-amide hydrochloride], the IC50 on human NHE3 was 97.6 nM. The inhibition in vivo at 3 mg/kg with SD rat is -5%.

Turning to `CN1Cc2c(Cl)cc(Cl)cc2[C@H](c2cccc(-c3ccnc(NCCOCCOCCNC(=O)NCCCCNC(=O)NCCOCCOCCNc4cc(-c5cccc([C@@H]6CN(C)Cc7c(Cl)cc(Cl)cc76)c5)ccn4)c3)c2)C1` [Example 7-4, 1,1′-Butane-1,4-diylbis {3-[2-(2-{2-[(4-{3-[(4S)-6,8-dichloro-2-methyl-1,2,3,4-tetrahydroisoquinolin-4-yl]phenyl}pyridin-2-yl)amino]ethoxy}ethoxy)ethyl]urea}pentahydrochloride], the IC50 on human NHE3 was 8.4 nM. The inhibition in vivo at 3 mg/kg in the assay on SD rat was 27%.

Take `CN1Cc2c(Cl)cc(Cl)cc2[C@H](c2cccc(-c3cn(CCOCCOCCOCCNC(=O)NCCN(CCCCN(CCNC(=O)NCCOCCOCCOCCn4cc(-c5cccc([C@@H]6CN(C)Cc7c(Cl)cc(Cl)cc76)c5)nn4)C(N)=O)C(N)=O)nn3)c2)C1.O=CO` [Example 7-42, 3,3′-Butane-1,4-diylbis {3-[16-(4-{3-[(4S)-6,8-dichloro-2-methyl-1,2,3,4-tetrahydroisoquinolin-4-yl]phenyl}-1H-1,2,3-triazol-1-yl)-4-oxo-8,11,14-trioxa-3,5-diazahexadec-1-yl]urea}formate]: the IC50 at human NHE3 was 5.5 nM. Further, the “Rate of inhibition of phosphate absorption” value in the assay on SD rat is 29%.

On to `CN1Cc2c(Cl)cc(Cl)cc2[C@H](c2cccc(-c3cn(CCOCCOCCOCCNC(=O)NCCOCCOCCNC(=O)NCCOCCOCCOCCn4cc(-c5cccc([C@@H]6CN(C)Cc7c(Cl)cc(Cl)cc76)c5)nn4)nn3)c2)C1` [Example 7-26, 1,1′-[Ethane-1,2-diylbis(oxyethane-2,1-diyl)]bis {3-[2-(2-{2-[2-(4-{3-[(4S)-6,8-dichloro-2-methyl-1,2,3,4-tetrahydroisoquinolin-4-yl]phenyl}-1H-1,2,3-triazol-1-yl)ethoxy]ethoxy}ethoxy)ethyl]urea}hydrochloride], for which, at human NHE3, the IC50 came out at 5.2 nM.

Regarding “1,3-Bis[14-(4-{3-[(4S)-6,8-dichloro-2-methyl-1,2,3,4-tetrahydroisoquinolin-4-yl]phenyl}-1H-1,2,3-triazol-1-yl)-3,6,9,12-tetraoxatetradec-1-yl]urea hydrochloride [Example 7-44]”, the IC50 on human NHE3 was determined as 7.6 nM.

In the case of `CN1Cc2c(Cl)cc(Cl)cc2[C@H](c2cccc(-c3ccc(NCCOCCOCCNC(=O)COCC(=O)NCCOCCOCCNc4ccc(-c5cccc([C@@H]6CN(C)Cc7c(Cl)cc(Cl)cc76)c5)cn4)nc3)c2)C1` [Example 8-7, 1-[(5-{3-[(4S)-6,8-Dichloro-2-methyl-1,2,3,4-tetrahydroisoquinolin-4-yl]phenyl}pyridin-2-yl)amino]-N-[2-(2-{2-[(5-{3-[(4S)-6,8-dichloro-2-methyl-1,2,3,4-tetrahydroisoquinolin-4-yl]phenyl}pyridin-2-yl)amino]ethoxy}ethoxy)ethyl]-10-oxo-3,6,12-trioxa-9-azatetradecan-14-amide hydrochloride], at human NHE3, the IC50 was found to be 41.7 nM.

As for `COc1cc(-c2cccc([C@@H]3CN(C)Cc4c(Cl)cc(Cl)cc43)c2)ncn1` [Example 1-13, (4S)-6,8-Dichloro-4-[3-(6-methoxypyrimidin-4-yl)phenyl]-2-methyl-1,2,3,4-tetrahydroisoquinoline trifluoroacetate], the IC50 at human NHE3 is 271 nM.

For the compound `CN1Cc2c(Cl)cc(Cl)cc2[C@H](c2cccc(-c3cn(CCOCCOCCNC(=O)[C@H](O)[C@@H](O)C(=O)NCCOCCOCCn4cc(-c5cccc([C@@H]6CN(C)Cc7c(Cl)cc(Cl)cc76)c5)nn4)nn3)c2)C1` [Example 6-6, (2R,3R)—N,N′-Bis(2-{2-[2-(4-{3-[(4S)-6,8-dichloro-2-methyl-1,2,3,4-tetrahydroisoquinolin-4-yl]phenyl}-1H-1,2,3-triazol-1-yl)ethoxy]ethoxy}ethyl)-2,3-dihydroxybutanediamide hydrochloride], at human NHE3, the IC50 came to 75 nM.

On to `CNc1cc(-c2cccc([C@@H]3CN(C)Cc4c(Cl)cc(Cl)cc43)c2)ccn1` [Example 1-9, 4-{3-[(4S)-6,8-Dichloro-2-methyl-1,2,3,4-tetrahydroisoquinolin-4-yl]phenyl}-N-methylpyridin-2-amine trifluoroacetate], for which the IC50 on human NHE3 turned out to be 561 nM.
